From EP0394553A2, “Use of fluorine containing pyridone carboxylic acid derivatives for preparing a medicament for the treatment of HIV infections” (DAIICHI PHARMACEUTICAL CO., LTD., priority 1989, dated 1990)

System: HIV (LAV 1)
Experiment: microbe, parasite or virus in culture
Experimental: Human T cell-derived, T4 antigen-positive CEM cells (provided by the Institut Pasteur, France) were used as host cells of HIV. Cell culture was carried out in a carbon dioxide-containing atmosphere in an incubator maintained at 37°C according to a conventional method [cf. […] The culture supernatant (5×10⁶ TCID₅₀/ml) obtained by subjecting CEM cells to HIV (LAV 1) infection and stored at -70°C was used as the HIV source.
The medium for cell culture (10 ml) placed in a plastic culture flask (25 cm²) was inoculated with CEM cells at a cell density of 2.5×10⁵ cells/ml. After 3 days of incubation, the culture was transferred to a 15-ml centrifuge tube and subjected to centrifugation at 1,000 revolutions per minute for 5 minutes for sedimentation of cells and removal of the culture medium.
The stock viral suspension was added to the host cells thus prepared to an MOI of 0.05 and the mixture was maintained at 37°C for 90 minutes with stirring at 30-minute intervals for viral adsorption. The medium was added to HIV-infected cells to a cell density of 5.0×10⁵ cells/ml to give an HIV-infected cell suspension.
A mixture (1.0 ml) of the three constituents mentioned below was added to each well of a 24-well plastic culture plate and the test substance final concentration was adjusted to 10 mcg/ml, 5 mcg/ml, 2.5 mcg/ml or 1 mcg/ml. The "no addition" wells (0 mcg/ml) served as controls.
After 4 days of incubation following viral infection, the cells in each well on the 24-well culture plate were suspended uniformly by pipetting and a 0.5-ml portion of the suspension was separated. A 2.0-ml portion of test substance-free fresh medium was added to the remaining 0.5-ml portion of the cell suspension, followed by incubation.
Seven days after viral infection, pipetting was performed to give a uniform cell suspension in each well and a 0.5-ml portion of the suspension was separated.
Incubation was continued and, 10 days after viral infection, a uniform cell suspension was produced in the same manner in each well and a 1.5-ml portion thereof was separated. A fresh 2.0-ml portion of the medium free of (or containing) the test substance was added to the well, followed by further incubation.
Fifteen days after viral infection, the cells in each well were suspended uniformly in the same manner in the medium and a 2.0-ml portion of the suspension was separated. A fresh 2.0-ml portion of the medium free of (or containing) the test substance was added to the remaining 0.5 ml of the cell suspension and incubation was continued.
Medium exchange was performed in the same manner 20 days and 25 days after viral infection.
The cell suspensions collected 4 days, 7 days, 10 days, 20 days and 30 days after viral infection were tested for viable cell count and viable cell percentage by trypan blue staining. At the same time, viral antigen-positive cell percentage determination was carried out by immunofluorescence using an anti-HIV antiserum isolated from a healthy carrier of HIV.
The numerical values given each is the mean for the respective two wells on the culture plate. The viable cell count is the total cell count minus the count of dead cells stained with trypan blue. The viable cell percentage is the percentage of viable cells among all the cells including dead cells. The viral antigen-positive cell percentage is the percentage of cells indicating antigen expression as found among all the cells including dead cells.

[1] = 1 mcg/ml, 4-day addition, after 4 days
[2] = 1 mcg/ml, 4-day addition, after 7 days
[3] = 1 mcg/ml, 4-day addition, after 10 days
[4] = 1 mcg/ml, 4-day addition, after 20 days
[5] = 1 mcg/ml, continuous addition, after 4 days
[6] = 1 mcg/ml, continuous addition, after 7 days
[7] = 1 mcg/ml, continuous addition, after 10 days
[8] = 2.5 mcg/ml, 4-day addition, after 4 days
[9] = 2.5 mcg/ml, 4-day addition, after 7 days
[10] = 2.5 mcg/ml, 4-day addition, after 10 days
[11] = 2.5 mcg/ml, 4-day addition, after 20 days
[12] = 2.5 mcg/ml, 4-day addition, after 30 days
[13] = 2.5 mcg/ml, continuous addition, after 4 days
[14] = 2.5 mcg/ml, continuous addition, after 7 days
[15] = 2.5 mcg/ml, continuous addition, after 10 days
[16] = 2.5 mcg/ml, continuous addition, after 20 days
[17] = 2.5 mcg/ml, continuous addition, after 30 days
[18] = 5 mcg/ml, 4-day addition, after 4 days
[19] = 5 mcg/ml, 4-day addition, after 7 days
[20] = 5 mcg/ml, 4-day addition, after 10 days
[21] = 5 mcg/ml, 4-day addition, after 20 days
[22] = 5 mcg/ml, 4-day addition, after 30 days
[23] = 5 mcg/ml, continuous addition, after 4 days
[24] = 5 mcg/ml, continuous addition, after 7 days
[25] = 5 mcg/ml, continuous addition, after 10 days
[26] = 5 mcg/ml, continuous addition, after 20 days
[27] = 5 mcg/ml, continuous addition, after 30 days
[28] = 10 mcg/ml, 4-day addition, after 4 days

SMILES: CC1COc2c(N3CCN(C)CC3)c(F)cc3c(=O)c(C(=O)O)cn1c23 (racemic) [OFLX, (±)-9-fluoro-3-methyl-10-(4-methyl-1-piperazinyl)-7-oxo-2,3-dihydro-7H-pyrido[1,2,3-de][1,4]benzoxazine-6-carboxylic acid]
- Viable cell count [1]: 260 × 10⁴ cells/ml
- Viral antigen-positive cell percentage [1]: 88%
- Viable cell count [2]: 43 × 10⁴ cells/ml
- Viral antigen-positive cell percentage [2]: 80%
- Viable cell count [3]: 13 × 10⁴ cells/ml
- Viral antigen-positive cell percentage [3]: 77%
- Viable cell count [4]: 34 × 10⁴ cells/ml
- Viral antigen-positive cell percentage [4]: 16%
- Viable cell count (1 mcg/ml, 4-day addition, after 30 days): 10 × 10⁴ cells/ml
- Viable cell count [5]: 300 × 10⁴ cells/ml
- Viral antigen-positive cell percentage [5]: 82%
- Viable cell count [6]: 39 × 10⁴ cells/ml
- Viral antigen-positive cell percentage [6]: 78%
- Viable cell count [7]: 46 × 10⁴ cells/ml
- Viral antigen-positive cell percentage [7]: 85%
- Viable cell count (1 mcg/ml, continuous addition, after 20 days): 15 × 10⁴ cells/ml
- Viable cell count (1 mcg/ml, continuous addition, after 30 days): 11 × 10⁴ cells/ml
- Viable cell count [8]: 260 × 10⁴ cells/ml
- Viral antigen-positive cell percentage [8]: 80%
- Viable cell count [9]: 58 × 10⁴ cells/ml
- Viral antigen-positive cell percentage [9]: 67%
- Viable cell count [10]: 83 × 10⁴ cells/ml
- Viral antigen-positive cell percentage [10]: 49%
- Viable cell count [11]: 300 × 10⁴ cells/ml
- Viral antigen-positive cell percentage [11]: 4%
- Viable cell count [12]: 300 × 10⁴ cells/ml
- Viral antigen-positive cell percentage [12]: 6%
- Viable cell count [13]: 260 × 10⁴ cells/ml
- Viral antigen-positive cell percentage [13]: 83%
- Viable cell count [14]: 59 × 10⁴ cells/ml
- Viral antigen-positive cell percentage [14]: 62%
- Viable cell count [15]: 110 × 10⁴ cells/ml
- Viral antigen-positive cell percentage [15]: 38%
- Viable cell count [16]: 220 × 10⁴ cells/ml
- Viral antigen-positive cell percentage [16]: 17%
- Viable cell count [17]: 360 × 10⁴ cells/ml
- Viral antigen-positive cell percentage [17]: 10%
- Viable cell count [18]: 250 × 10⁴ cells/ml
- Viral antigen-positive cell percentage [18]: 82%
- Viable cell count [19]: 60 × 10⁴ cells/ml
- Viral antigen-positive cell percentage [19]: 50%
- Viable cell count [20]: 170 × 10⁴ cells/ml
- Viral antigen-positive cell percentage [20]: 33%
- Viable cell count [21]: 320 × 10⁴ cells/ml
- Viral antigen-positive cell percentage [21]: 5%
- Viable cell count [22]: 330 × 10⁴ cells/ml
- Viral antigen-positive cell percentage [22]: 4%
- Viable cell count [23]: 340 × 10⁴ cells/ml
- Viral antigen-positive cell percentage [23]: 75%
- Viable cell count [24]: 58 × 10⁴ cells/ml
- Viral antigen-positive cell percentage [24]: 76%
- Viable cell count [25]: 160 × 10⁴ cells/ml
- Viral antigen-positive cell percentage [25]: 40%
- Viable cell count [26]: 300 × 10⁴ cells/ml
- Viral antigen-positive cell percentage [26]: 11%
- Viable cell count [27]: 290 × 10⁴ cells/ml
- Viral antigen-positive cell percentage [27]: 2%
- Viable cell count [28]: 260 × 10⁴ cells/ml
- Viral antigen-positive cell percentage [28]: 74%
